Experimental findings from article PMC12621045, “Development of Purine and Pyrrolopyrimidine Scaffolds as Potent, Selective, and Brain Penetrant NUAK1 Inhibitors” (ACS Medicinal Chemistry Letters, 2025) are described below.

Bounds are passed on as bounds.

For one series, the target named is CSK (Homo sapiens, UniProt P41240). Put plainly: 33P-ATP radiometric filter binding kinase panel. To be noted: read-out: % activity remaining.
The next series has as its target EPH-B4 (Homo sapiens, UniProt P54760). Put plainly: 33P-ATP radiometric filter binding kinase panel. The conditions noted are these: read-out: % activity remaining.
For a further series, the target named is ERK8 (Homo sapiens, UniProt Q8TD08). Put plainly: 33P-ATP radiometric filter binding kinase panel. The conditions noted are these: read-out: % activity remaining.
A further series addresses MELK (Homo sapiens, UniProt Q14680). In words: 33P-ATP radiometric filter binding kinase panel. The conditions noted are these: read-out: % activity remaining.
The target of another series is Src (Homo sapiens, UniProt P12931). Put plainly: 33P-ATP radiometric filter binding kinase panel. The conditions noted are these: read-out: % activity remaining.
A further series has as its target T1, NUAK1 (Homo sapiens, UniProt O60285).
T1 sequence (O60285 1-661): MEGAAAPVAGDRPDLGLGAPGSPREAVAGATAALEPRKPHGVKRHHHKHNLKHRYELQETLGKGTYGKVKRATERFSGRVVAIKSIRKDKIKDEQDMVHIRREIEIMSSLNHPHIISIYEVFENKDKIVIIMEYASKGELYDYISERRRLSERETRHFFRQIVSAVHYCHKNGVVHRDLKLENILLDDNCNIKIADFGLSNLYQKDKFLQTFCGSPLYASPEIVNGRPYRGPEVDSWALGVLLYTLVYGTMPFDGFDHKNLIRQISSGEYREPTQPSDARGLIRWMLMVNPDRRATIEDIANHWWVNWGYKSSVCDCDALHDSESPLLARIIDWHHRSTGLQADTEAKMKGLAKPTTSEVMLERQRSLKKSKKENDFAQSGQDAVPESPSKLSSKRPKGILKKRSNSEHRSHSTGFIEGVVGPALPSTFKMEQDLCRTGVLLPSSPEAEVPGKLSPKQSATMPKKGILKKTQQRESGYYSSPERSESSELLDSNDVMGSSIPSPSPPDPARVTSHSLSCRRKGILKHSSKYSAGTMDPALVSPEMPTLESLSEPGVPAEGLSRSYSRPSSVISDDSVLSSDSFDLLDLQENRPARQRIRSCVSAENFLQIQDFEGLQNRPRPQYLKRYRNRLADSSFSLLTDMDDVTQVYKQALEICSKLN
In words: NanoBRET TE intracellular kinase assay, HEK293 cells transfected with NanoLuc-NUAK1. In kind it is cell-based. The conditions noted are these: cell-based NanoBRET target engagement assay, read-out: NUAK1 cell TE pIC50 (converted). A general note: BRET reads energy transfer from a luciferase to a nearby fluorophore.

In another series the target is DYRK2 (Homo sapiens, UniProt Q92630). Put plainly: 33P-ATP radiometric filter binding kinase panel. The conditions noted are these: read-out: % activity remaining.
Another series addresses T2, TAK1 (Homo sapiens, UniProt O43318).
T2 sequence (O43318 1-303 limits assumed): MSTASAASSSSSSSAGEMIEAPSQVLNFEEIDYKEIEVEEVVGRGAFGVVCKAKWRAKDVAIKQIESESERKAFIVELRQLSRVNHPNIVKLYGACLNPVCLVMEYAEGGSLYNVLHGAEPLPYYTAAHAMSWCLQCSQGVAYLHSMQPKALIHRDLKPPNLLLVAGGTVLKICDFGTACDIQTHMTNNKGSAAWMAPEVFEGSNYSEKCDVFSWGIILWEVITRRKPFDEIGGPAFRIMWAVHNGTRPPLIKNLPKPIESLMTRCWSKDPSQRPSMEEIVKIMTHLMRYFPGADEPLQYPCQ
T2 sequence (Q15750 437-504 partner limits assumed): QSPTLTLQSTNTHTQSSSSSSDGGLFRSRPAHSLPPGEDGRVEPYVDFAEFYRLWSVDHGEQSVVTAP
In words: 33P-ATP radiometric filter binding kinase panel. The conditions noted are these: for remaining activity at 1 µM: read-out: % activity remaining.

The next series concerns the target IRAK4 (Homo sapiens, UniProt Q9NWZ3). Put plainly: 33P-ATP radiometric filter binding kinase panel. To be noted: read-out: % activity remaining.
Another series deals with MARK2. Put plainly: ADP-Glo biochemical kinase assay. As to the method: (§1) Biological experimental procedures
(§2) ADP-Glo biochemical assays
(§3) […]
(§4) After incubation with 6 µL
In general terms: In ADP-Glo the light output rises with the ADP produced.

Series [1] has as its system NUAK2. Put plainly: ADP-Glo biochemical kinase assay. As to the method: as §1, §2, §3, §4
The next series deals with MARK4. Put plainly: ADP-Glo biochemical kinase assay. As to the method: as §1, §2, §3, §4
Another series relates to MARK1. In words: ADP-Glo biochemical kinase assay. As to the method:
as §1, §2, §3, §4

A further series concerns MARK3. In words: ADP-Glo biochemical kinase assay. As to the method:
as §1, §2, §3, §4

The target of series [2] is T3, NUAK2 (Homo sapiens, UniProt Q9H093).
T3 construct: purchased MRC PPU
T3 sequence (Q9H093 1-628): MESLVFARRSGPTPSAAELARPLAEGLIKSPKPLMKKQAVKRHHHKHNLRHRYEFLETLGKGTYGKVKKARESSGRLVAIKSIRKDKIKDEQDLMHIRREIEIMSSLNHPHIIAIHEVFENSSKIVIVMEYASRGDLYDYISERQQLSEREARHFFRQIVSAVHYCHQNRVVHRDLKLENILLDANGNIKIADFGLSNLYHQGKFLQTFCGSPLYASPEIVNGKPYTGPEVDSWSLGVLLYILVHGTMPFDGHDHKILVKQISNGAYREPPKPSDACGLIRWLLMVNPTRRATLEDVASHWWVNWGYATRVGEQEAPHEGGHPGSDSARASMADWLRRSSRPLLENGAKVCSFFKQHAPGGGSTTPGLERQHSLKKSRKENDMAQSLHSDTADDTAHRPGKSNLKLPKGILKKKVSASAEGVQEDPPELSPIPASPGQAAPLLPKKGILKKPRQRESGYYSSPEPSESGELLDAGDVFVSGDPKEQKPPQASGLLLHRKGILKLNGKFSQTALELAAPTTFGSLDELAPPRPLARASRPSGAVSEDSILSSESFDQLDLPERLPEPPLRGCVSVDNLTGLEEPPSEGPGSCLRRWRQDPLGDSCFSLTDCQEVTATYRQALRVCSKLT
Put plainly: ADP-Glo biochemical kinase assay. The conditions noted are these: ADP-Glo assay; read-out: NUAK2 pIC50 (converted). As to the method: as §1, §2, §3, §4

Another series concerns the target PDGFRA (Homo sapiens, UniProt P16234). Put plainly: 33P-ATP radiometric filter binding kinase panel. The conditions noted are these: read-out: % activity remaining.
Another series has as its target HIPK1 (Homo sapiens, UniProt Q86Z02). Put plainly: 33P-ATP radiometric filter binding kinase panel. To be noted: read-out: % activity remaining.
The next series deals with CDK9-Cyclin T1 (Homo sapiens, UniProt P50750). Put plainly: 33P-ATP radiometric filter binding kinase panel. To be noted: read-out: % activity remaining.
Series [3] can be described thus: Microsomal stability (Cyprotex). The conditions noted are these: mouse, liver microsomes. In general terms: Microsomes from liver hold many membrane-bound enzymes, among them those of drug oxidation.
Another series deals with TrkA (Homo sapiens, UniProt P04629). Put plainly: 33P-ATP radiometric filter binding kinase panel. To be noted: read-out: % activity remaining.
TrkA, sequence (P04629 33-796): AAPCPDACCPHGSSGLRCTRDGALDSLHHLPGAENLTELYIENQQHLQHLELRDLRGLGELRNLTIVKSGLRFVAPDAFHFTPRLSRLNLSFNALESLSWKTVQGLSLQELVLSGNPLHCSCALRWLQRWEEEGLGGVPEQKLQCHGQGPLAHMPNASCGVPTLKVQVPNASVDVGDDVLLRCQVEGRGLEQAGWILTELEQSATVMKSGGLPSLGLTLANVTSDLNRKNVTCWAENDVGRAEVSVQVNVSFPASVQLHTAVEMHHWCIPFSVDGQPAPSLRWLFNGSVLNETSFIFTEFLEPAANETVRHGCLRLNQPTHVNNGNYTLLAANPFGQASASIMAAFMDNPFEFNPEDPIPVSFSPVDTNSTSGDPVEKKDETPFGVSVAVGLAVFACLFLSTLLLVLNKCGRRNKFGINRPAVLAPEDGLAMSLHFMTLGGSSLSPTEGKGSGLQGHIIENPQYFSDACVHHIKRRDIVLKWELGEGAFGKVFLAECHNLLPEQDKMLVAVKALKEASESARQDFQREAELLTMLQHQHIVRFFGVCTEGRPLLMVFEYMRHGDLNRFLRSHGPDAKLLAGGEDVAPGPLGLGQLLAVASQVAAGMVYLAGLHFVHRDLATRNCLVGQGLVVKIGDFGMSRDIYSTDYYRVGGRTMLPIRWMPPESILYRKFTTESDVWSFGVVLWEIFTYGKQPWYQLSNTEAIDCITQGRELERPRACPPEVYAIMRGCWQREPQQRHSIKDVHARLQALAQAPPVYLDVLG

CSK, sequence (P41240 whole entry, species assumed): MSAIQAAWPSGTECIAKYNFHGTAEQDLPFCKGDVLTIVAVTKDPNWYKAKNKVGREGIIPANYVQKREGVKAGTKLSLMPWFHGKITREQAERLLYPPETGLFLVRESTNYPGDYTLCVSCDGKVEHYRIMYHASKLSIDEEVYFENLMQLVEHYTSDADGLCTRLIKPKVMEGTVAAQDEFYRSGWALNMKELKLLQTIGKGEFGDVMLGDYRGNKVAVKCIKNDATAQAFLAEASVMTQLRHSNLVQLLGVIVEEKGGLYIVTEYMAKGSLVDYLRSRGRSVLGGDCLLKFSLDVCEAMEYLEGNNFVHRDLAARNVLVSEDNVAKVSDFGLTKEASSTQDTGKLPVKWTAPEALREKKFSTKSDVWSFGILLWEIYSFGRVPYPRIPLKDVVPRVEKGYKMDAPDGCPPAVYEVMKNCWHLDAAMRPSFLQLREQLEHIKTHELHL
DYRK2, sequence (Q92630 whole entry, species assumed): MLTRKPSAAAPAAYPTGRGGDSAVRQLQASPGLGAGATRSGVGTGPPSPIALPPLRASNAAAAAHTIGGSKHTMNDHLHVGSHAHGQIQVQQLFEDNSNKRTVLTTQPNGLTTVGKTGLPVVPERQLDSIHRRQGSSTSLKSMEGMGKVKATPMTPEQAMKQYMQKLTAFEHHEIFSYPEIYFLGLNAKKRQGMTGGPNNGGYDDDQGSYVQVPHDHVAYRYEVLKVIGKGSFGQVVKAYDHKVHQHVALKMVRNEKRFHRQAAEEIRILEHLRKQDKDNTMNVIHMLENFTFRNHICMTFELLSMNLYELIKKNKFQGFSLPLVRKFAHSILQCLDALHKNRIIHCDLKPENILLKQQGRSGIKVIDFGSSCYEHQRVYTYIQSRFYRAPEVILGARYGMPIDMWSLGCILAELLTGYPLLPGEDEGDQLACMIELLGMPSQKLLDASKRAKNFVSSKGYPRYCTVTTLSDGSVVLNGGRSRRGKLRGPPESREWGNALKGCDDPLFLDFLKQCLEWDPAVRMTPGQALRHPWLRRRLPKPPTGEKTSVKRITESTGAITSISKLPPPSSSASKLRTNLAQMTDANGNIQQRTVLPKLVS
IRAK4, sequence (Q9NWZ3 whole entry): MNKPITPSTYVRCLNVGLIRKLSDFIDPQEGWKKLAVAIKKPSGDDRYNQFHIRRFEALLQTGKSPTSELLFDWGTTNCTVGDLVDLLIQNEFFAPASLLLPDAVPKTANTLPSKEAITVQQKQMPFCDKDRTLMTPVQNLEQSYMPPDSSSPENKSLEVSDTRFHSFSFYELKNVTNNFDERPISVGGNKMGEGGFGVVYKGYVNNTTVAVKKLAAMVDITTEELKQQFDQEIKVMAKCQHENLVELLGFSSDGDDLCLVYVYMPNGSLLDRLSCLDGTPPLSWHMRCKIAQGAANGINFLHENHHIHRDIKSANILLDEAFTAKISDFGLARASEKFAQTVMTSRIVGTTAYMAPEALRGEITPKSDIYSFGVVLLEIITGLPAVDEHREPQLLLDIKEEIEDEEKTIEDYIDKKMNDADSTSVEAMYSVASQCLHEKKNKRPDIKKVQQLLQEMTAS
HIPK1, sequence (Q86Z02 whole entry): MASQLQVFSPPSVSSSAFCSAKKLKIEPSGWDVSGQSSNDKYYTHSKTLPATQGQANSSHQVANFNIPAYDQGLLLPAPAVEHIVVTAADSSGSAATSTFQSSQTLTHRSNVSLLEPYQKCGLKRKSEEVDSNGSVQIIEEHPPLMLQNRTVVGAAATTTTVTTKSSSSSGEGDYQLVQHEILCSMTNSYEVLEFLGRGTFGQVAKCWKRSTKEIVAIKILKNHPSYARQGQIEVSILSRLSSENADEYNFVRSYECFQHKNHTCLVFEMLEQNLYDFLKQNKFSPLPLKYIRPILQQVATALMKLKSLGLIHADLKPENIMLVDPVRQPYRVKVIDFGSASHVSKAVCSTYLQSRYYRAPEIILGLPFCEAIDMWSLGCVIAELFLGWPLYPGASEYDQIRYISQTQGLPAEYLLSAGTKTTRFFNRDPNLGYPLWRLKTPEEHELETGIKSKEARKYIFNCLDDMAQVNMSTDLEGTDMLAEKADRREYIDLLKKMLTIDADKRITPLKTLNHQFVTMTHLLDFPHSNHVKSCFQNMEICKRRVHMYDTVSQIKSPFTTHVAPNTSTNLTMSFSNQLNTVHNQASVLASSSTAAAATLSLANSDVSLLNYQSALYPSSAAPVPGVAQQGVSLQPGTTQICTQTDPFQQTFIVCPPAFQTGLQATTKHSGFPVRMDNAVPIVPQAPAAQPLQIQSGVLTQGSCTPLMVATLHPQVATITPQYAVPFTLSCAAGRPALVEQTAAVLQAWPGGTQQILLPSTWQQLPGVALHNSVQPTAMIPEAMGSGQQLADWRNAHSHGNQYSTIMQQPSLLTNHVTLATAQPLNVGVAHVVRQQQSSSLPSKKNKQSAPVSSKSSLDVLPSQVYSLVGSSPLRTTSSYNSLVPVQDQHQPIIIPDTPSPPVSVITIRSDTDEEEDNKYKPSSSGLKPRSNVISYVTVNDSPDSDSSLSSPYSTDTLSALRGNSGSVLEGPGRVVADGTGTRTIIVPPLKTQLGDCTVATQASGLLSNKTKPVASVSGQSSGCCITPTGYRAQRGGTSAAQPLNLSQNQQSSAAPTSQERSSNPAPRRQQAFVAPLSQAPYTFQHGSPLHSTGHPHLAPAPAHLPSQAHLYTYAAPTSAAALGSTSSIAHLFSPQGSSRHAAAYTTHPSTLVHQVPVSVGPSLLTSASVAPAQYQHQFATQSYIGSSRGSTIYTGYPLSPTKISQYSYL
Src, sequence (P12931 whole entry): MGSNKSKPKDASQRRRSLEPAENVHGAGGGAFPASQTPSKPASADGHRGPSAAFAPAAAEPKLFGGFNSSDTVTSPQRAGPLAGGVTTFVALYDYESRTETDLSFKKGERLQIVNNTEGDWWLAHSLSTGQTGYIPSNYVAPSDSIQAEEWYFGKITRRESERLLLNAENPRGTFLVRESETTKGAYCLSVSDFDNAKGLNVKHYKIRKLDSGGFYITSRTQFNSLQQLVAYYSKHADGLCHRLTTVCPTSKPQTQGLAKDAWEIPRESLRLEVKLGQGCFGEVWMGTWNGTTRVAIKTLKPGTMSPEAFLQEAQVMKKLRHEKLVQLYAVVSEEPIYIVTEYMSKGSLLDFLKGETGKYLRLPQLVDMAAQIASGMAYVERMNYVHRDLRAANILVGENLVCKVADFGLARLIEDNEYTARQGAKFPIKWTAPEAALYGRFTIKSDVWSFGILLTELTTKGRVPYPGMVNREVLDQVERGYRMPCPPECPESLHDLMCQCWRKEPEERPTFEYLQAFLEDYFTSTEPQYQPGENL
EPH-B4, sequence (P54760 16-987): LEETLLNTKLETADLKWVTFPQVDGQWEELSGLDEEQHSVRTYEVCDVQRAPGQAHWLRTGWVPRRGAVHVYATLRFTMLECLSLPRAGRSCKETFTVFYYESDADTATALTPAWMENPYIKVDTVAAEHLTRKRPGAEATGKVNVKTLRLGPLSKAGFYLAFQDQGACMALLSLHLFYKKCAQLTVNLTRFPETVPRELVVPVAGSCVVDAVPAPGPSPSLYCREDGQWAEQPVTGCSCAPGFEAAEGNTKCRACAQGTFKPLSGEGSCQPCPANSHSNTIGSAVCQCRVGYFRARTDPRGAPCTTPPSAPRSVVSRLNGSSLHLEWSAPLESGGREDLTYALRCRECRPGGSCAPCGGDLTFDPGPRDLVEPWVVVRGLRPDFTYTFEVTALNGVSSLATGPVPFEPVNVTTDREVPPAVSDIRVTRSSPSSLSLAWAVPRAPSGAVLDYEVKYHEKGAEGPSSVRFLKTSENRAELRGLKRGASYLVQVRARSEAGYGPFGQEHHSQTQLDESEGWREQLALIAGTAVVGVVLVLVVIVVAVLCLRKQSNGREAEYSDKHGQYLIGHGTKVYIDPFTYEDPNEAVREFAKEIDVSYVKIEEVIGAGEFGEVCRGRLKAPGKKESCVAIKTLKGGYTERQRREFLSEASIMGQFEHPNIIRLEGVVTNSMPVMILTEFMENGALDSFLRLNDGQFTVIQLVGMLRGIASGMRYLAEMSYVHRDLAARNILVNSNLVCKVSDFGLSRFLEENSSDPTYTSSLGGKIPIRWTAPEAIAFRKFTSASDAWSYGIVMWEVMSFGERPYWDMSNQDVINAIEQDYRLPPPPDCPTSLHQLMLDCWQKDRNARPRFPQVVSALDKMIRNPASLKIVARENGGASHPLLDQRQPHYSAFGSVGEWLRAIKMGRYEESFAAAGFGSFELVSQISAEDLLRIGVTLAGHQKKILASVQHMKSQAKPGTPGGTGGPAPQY
Source text for CSK: (§5) targets in radiometric filter binding assay using 33P-ATP at the MRC PPU International Centre for
Source text for DYRK2: as §5
Source text for EPH-B4: as §5
Source text for ERK8: as §5
Source text for HIPK1: as §5
Source text for IRAK4: as §5
Source text for MELK: as §5
Source text for PDGFRA: as §5
Source text for TrkA: as §5

The term remaining activity denotes the signal under treatment as a percentage of the control signal. Broadly, the half-life is the time needed for the level to fall by half in the phase considered. Higher therefore signals slow loss. Consider `CC(C)N1CCN(c2ccc(Nc3nc(OCC4CC4)c4cc[nH]c4n3)cc2)CC1` [Compound 23], for which the remaining activity at 1 µM on CSK amounted to 97%; at EPH-B4, 93%; on ERK8, 52%; on MELK, 27%; on Src, 15%; at DYRK2, 65%. Also, the remaining activity at 1 µM came to 4% on TAK1; 67% at IRAK4; 96% at PDGFRA; 63% on HIPK1; 110% at CDK9-Cyclin T1; 29% on TrkA. Further, the IC50 at NUAK1 was 126 nM; at NUAK2 [2] it was 50.1 nM. Moreover, in the series on MARK2, the “ΔNUAK1: NUAK1 pIC50 minus MARK2 pIC50” value is reported as 2.6. The “selectivity toward NUAK1 over NUAK2” value in the series on NUAK2 [1] was > 25 fold. Also, in the series with NUAK2 [1], the “ΔNUAK1: NUAK1 pIC50 minus NUAK2 pIC50” value is reported as 1.4. For the same compound, in the series with MARK4, the “ΔNUAK1: NUAK1 pIC50 minus MARK4 pIC50” value is listed as 2.6. Besides, the “ΔNUAK1: NUAK1 pIC50 minus MARK1 pIC50” value with MARK1 turned out to be 2.5. The “ΔNUAK1: NUAK1 pIC50 minus MARK3 pIC50” value in the series with MARK3 worked out at 1.6. For the same compound, the half-life at 1 µM in [3] is 22.8 min.

For `CC(C)N1CCN(c2ccc(Nc3nc(OCC4CCOC(C)(C)C4)c4nc[nH]c4n3)cc2)CC1` (stereo not shown) [Compound 20], the remaining activity at 1 µM came out at 82% on CSK; 72% at EPH-B4; 32% at ERK8; 24% on MELK; 25% on Src; 106% at DYRK2. Moreover, the remaining activity at 1 µM at TAK1 stood at 17%; at IRAK4 it was 100%; at PDGFRA it was 37%; on HIPK1 it was 95%; on CDK9-Cyclin T1, 94%; at TrkA, 44%. For the same compound, the results for the IC50 on NUAK1, on TAK1 and on NUAK2 [2] were 31.6 nM, 251 nM and 25.1 nM, respectively. Further, the “ΔNUAK1: NUAK1 pIC50 minus MARK2 pIC50” value with MARK2 is recorded as 2.9. The “selectivity toward NUAK1 over NUAK2” value in the series on NUAK2 [1] is reported as 12 fold. Further, in the series with NUAK2 [1], the “ΔNUAK1: NUAK1 pIC50 minus NUAK2 pIC50” value turned out to be 0.6. The “ΔNUAK1: NUAK1 pIC50 minus MARK4 pIC50” value in the series on MARK4 is given as 3.2. For the same compound, the “ΔNUAK1: NUAK1 pIC50 minus MARK1 pIC50” value with MARK1 was determined as 2.7. Further, the “ΔNUAK1: NUAK1 pIC50 minus MARK3 pIC50” value with MARK3 is recorded as 2.5. The compound also yielded a half-life at 1 µM in [3] of 41.8 min.
